ChEMBL document CHEMBL1201862, “PubChem BioAssay data set” (2004)
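Results reflect a 48-hour exposure of cells in 96-well plates to compound at five concentrations. At the GI50, growth is halved.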 Active and inactive are the calls of the source. No stated cut-off is given here; in the data, active = GI50 up to about 1.1 µM and inactive = higher.

What was measured:
Test in all cases: NCI tumour cell line growth inhibition, 48 h
U-251 = tested on: U-251
SNB-19 = tested on: SNB-19
NCI-H23 = tested on: NCI-H23
SNB-75 = tested on: SNB-75
SK-MEL-5 = tested on: SK-MEL-5
A498 = tested on: A498
SW-620 = tested on: SW-620
HOP-62 = tested on: HOP-62
DMS-273 = tested on: DMS-273
ACHN = tested on: ACHN
HCT-15 = tested on: HCT-15
HCC 2998 = tested on: HCC 2998
786-0 = tested on: 786-0
CCRF-CEM = tested on: CCRF-CEM
EKVX = tested on: EKVX
HT-29 = tested on: HT-29
SK-MEL-2 = tested on: SK-MEL-2
XF498 = tested on: XF498
UACC-257 = tested on: UACC-257
OVCAR-5 = tested on: OVCAR-5
IGROV-1 = tested on: IGROV-1
TK-10 = tested on: TK-10
RPMI-8226 = tested on: RPMI-8226
LOX IMVI = tested on: LOX IMVI
SF-295 = tested on: SF-295
M19-MEL = tested on: M19-MEL
HOP-18 = tested on: HOP-18
OVCAR-3 = tested on: OVCAR-3
DLD-1 = tested on: DLD-1
K562 = tested on: K562
NCI-H522 = tested on: NCI-H522
KM-20L2 = tested on: KM-20L2
HCT-116 = tested on: HCT-116
SN12C = tested on: SN12C
SNB-78 = tested on: SNB-78
M14 = tested on: M14
SK-OV-3 = tested on: SK-OV-3
OVCAR-4 = tested on: OVCAR-4
Malme-3M = tested on: Malme-3M
KM12 = tested on: KM12
UACC-62 = tested on: UACC-62
LXFL 529 = tested on: LXFL 529
NCI-H226 = tested on: NCI-H226
UO-31 = tested on: UO-31
CAKI-1 = tested on: CAKI-1
MOLT-4 = tested on: MOLT-4
HL-60 = tested on: HL-60
NCI-H460 = tested on: NCI-H460
OVCAR-8 = tested on: OVCAR-8
SF-539 = tested on: SF-539
COLO 205 = tested on: COLO 205
SR = tested on: SR
A549 = tested on: A549
RXF 393 = tested on: RXF 393
SK-MEL-28 = tested on: SK-MEL-28
DMS-114 = tested on: DMS-114
SF-268 = tested on: SF-268
HOP-92 = tested on: HOP-92

Measured: GI50

NC(=O)c1ccccc1NC(=O)C(=O)Nc1n[nH]c(N)n1
> 100 µM: HCT-15
inactive: U-251 > 100 µM | SNB-19 > 100 µM | NCI-H23 > 100 µM | SNB-75 > 100 µM | SK-MEL-5 > 100 µM | A498 > 100 µM | SW-620 > 100 µM | HOP-62 > 100 µM | DMS-273 > 100 µM | ACHN > 100 µM | HCC 2998 > 100 µM | 786-0 > 100 µM | CCRF-CEM > 100 µM | EKVX > 100 µM | HT-29 > 100 µM | SK-MEL-2 > 100 µM | XF498 > 100 µM | UACC-257 > 100 µM | OVCAR-5 > 100 µM | IGROV-1 > 100 µM | TK-10 > 100 µM | RPMI-8226 > 100 µM | LOX IMVI > 100 µM | SF-295 > 100 µM | M19-MEL > 100 µM | HOP-18 > 100 µM | OVCAR-3 > 100 µM | DLD-1 > 100 µM | K562 > 100 µM | NCI-H522 > 100 µM | KM-20L2 > 100 µM | HCT-116 > 100 µM | SN12C > 100 µM | SNB-78 > 100 µM | M14 > 100 µM | SK-OV-3 > 100 µM | OVCAR-4 > 100 µM | Malme-3M > 100 µM | KM12 > 100 µM | UACC-62 > 100 µM | LXFL 529 > 100 µM | NCI-H226 > 100 µM | UO-31 > 100 µM | CAKI-1 > 100 µM | MOLT-4 > 100 µM | HL-60 > 100 µM | NCI-H460 > 100 µM | OVCAR-8 > 100 µM | SF-539 > 100 µM | COLO 205 > 100 µM | SR > 100 µM | A549 > 100 µM | RXF 393 > 100 µM

CCc1c(Cc2[nH]c(Cc3[nH]c(C=O)c(C)c3CC)c(CC)c2CC)[nH]c(C=O)c1C
> 100 µM: HCT-15
inactive: U-251 > 100 µM | SNB-19 > 100 µM | SNB-75 34.6 µM | SK-MEL-5 > 100 µM | SW-620 > 100 µM | HOP-62 > 100 µM | DMS-273 > 100 µM | ACHN > 100 µM | HCC 2998 > 100 µM | 786-0 > 100 µM | CCRF-CEM 66.7 µM | EKVX > 100 µM | HT-29 > 100 µM | SK-MEL-2 > 10 µM | XF498 > 100 µM | TK-10 > 100 µM | SK-MEL-28 > 100 µM | RPMI-8226 > 100 µM | LOX IMVI > 100 µM | SF-295 > 100 µM | M19-MEL > 100 µM | HOP-18 > 100 µM | OVCAR-3 > 100 µM | DLD-1 > 100 µM | K562 > 100 µM | NCI-H522 > 100 µM | KM-20L2 > 100 µM | HCT-116 > 100 µM | SN12C > 100 µM | SNB-78 > 100 µM | M14 > 100 µM | SK-OV-3 > 100 µM | Malme-3M > 100 µM | KM12 > 10 µM | UACC-62 > 100 µM | LXFL 529 > 100 µM | NCI-H226 > 100 µM | UO-31 > 100 µM | DMS-114 > 100 µM | CAKI-1 > 100 µM | MOLT-4 > 100 µM | HL-60 > 100 µM | NCI-H460 > 100 µM | OVCAR-8 > 100 µM | SF-539 > 100 µM | COLO 205 > 100 µM | SR > 100 µM | A549 > 100 µM | SF-268 > 100 µM | RXF 393 39 µM

CCOC(=O)c1nc2ccc(Cl)cc2c2c1CCO2
99.1 µM: HCT-15
inactive: U-251 74.6 µM | SNB-19 > 100 µM | NCI-H23 > 100 µM | SNB-75 24 µM | SK-MEL-5 55.6 µM | A498 31 µM | SW-620 > 100 µM | HOP-62 82.4 µM | DMS-273 > 100 µM | ACHN 55 µM | HCC 2998 > 100 µM | 786-0 > 100 µM | CCRF-CEM 79.4 µM | EKVX > 100 µM | HT-29 > 100 µM | XF498 72.8 µM | UACC-257 > 100 µM | OVCAR-5 > 100 µM | IGROV-1 58.2 µM | TK-10 76.7 µM | SK-MEL-28 > 100 µM | LOX IMVI 59.6 µM | SF-295 > 100 µM | M19-MEL > 100 µM | HOP-18 23.6 µM | OVCAR-3 > 100 µM | DLD-1 > 100 µM | K562 91.2 µM | NCI-H522 34.7 µM | KM-20L2 > 100 µM | HCT-116 57 µM | SN12C 82 µM | SNB-78 > 100 µM | M14 > 100 µM | SK-OV-3 76 µM | OVCAR-4 70.1 µM | Malme-3M > 100 µM | KM12 > 100 µM | UACC-62 87.7 µM | LXFL 529 51.4 µM | NCI-H226 > 100 µM | DMS-114 64.3 µM | CAKI-1 51.8 µM | MOLT-4 53.5 µM | HL-60 18.2 µM | NCI-H460 > 100 µM | OVCAR-8 > 100 µM | SF-539 95.1 µM | COLO 205 > 100 µM | A549 > 100 µM | SF-268 90.8 µM | RXF 393 41.5 µM

N#Cc1ccccc1C(Cl)(Cl)c1cnccn1
inactive: U-251 34.8 µM | SNB-19 56.5 µM | NCI-H23 38.5 µM | SK-MEL-5 20.4 µM | A498 92.7 µM | SW-620 99.3 µM | HOP-62 72.4 µM | DMS-273 37.2 µM | ACHN 59.6 µM | HCC 2998 32.4 µM | 786-0 14.6 µM | CCRF-CEM 20 µM | EKVX 40 µM | HT-29 57.4 µM | SK-MEL-2 67 µM | XF498 17.9 µM | UACC-257 88.1 µM | OVCAR-5 > 100 µM | IGROV-1 44.1 µM | TK-10 > 100 µM | SK-MEL-28 51.2 µM | LOX IMVI 24.2 µM | SF-295 47 µM | M19-MEL 54.1 µM | HOP-92 25.4 µM | HOP-18 > 100 µM | DLD-1 47.3 µM | K562 34.3 µM | NCI-H522 19.8 µM | SN12C 74.8 µM | SNB-78 46.3 µM | SK-OV-3 61.1 µM | OVCAR-4 > 100 µM | KM12 37.8 µM | UACC-62 30.5 µM | LXFL 529 75.9 µM | NCI-H226 36.6 µM | UO-31 33.3 µM | DMS-114 22.4 µM | CAKI-1 > 100 µM | MOLT-4 22.6 µM | HL-60 28.6 µM | NCI-H460 47.4 µM | OVCAR-8 26.3 µM | SF-539 32.4 µM | COLO 205 46.9 µM | SR 34 µM | A549 83.9 µM | SF-268 52.5 µM | RXF 393 26.4 µM

COc1ccc2c(c1)c(=O)c1ccccc1n2/C=C/C(=O)O
inactive: U-251 > 27 µM | SNB-19 > 100 µM | NCI-H23 > 100 µM | SNB-75 > 100 µM | SK-MEL-5 > 100 µM | A498 > 100 µM | SW-620 > 100 µM | HOP-62 > 100 µM | DMS-273 > 41.3 µM | ACHN > 100 µM | HCC 2998 > 100 µM | 786-0 > 100 µM | CCRF-CEM > 48.4 µM | EKVX > 100 µM | HT-29 > 74.8 µM | SK-MEL-2 > 100 µM | XF498 > 100 µM | UACC-257 > 100 µM | OVCAR-5 > 100 µM | IGROV-1 > 100 µM | TK-10 > 100 µM | SK-MEL-28 > 100 µM | RPMI-8226 > 100 µM | LOX IMVI > 46.9 µM | SF-295 > 100 µM | HOP-92 > 100 µM | HOP-18 > 100 µM | OVCAR-3 > 100 µM | DLD-1 > 47 µM | K562 > 100 µM | NCI-H522 > 100 µM | KM-20L2 26.7 µM | HCT-116 > 100 µM | SN12C > 100 µM | SNB-78 > 100 µM | M14 > 100 µM | SK-OV-3 > 100 µM | OVCAR-4 > 100 µM | Malme-3M > 100 µM | KM12 > 100 µM | UACC-62 > 100 µM | LXFL 529 > 100 µM | NCI-H226 > 100 µM | UO-31 > 100 µM | DMS-114 > 83.6 µM | CAKI-1 > 100 µM | MOLT-4 > 100 µM | HL-60 > 46.8 µM | NCI-H460 > 100 µM | OVCAR-8 > 100 µM | SF-539 > 100 µM | COLO 205 > 56.8 µM | SR > 41.7 µM | A549 > 100 µM | SF-268 > 68.2 µM | RXF 393 > 79.4 µM
> 100 µM: HCT-15
